The results in this text go back to US20230077362A1 (CORTEVA AGRISCIENCE LLC, priority 2019, published 2023).

Where two headings read alike, the source gives them in different places.

The subject of assay [1] is Cabbage Looper (Trichoplusia ni) ("CL"), second instar larvae. The assay is described as follows: Bioassay on cabbage looper (CL), 128-well diet tray assay. The class given is in vivo. Conditions: for pest or weed control at 50 µg/cm2: Trichoplusia ni. An outline of the steps: (§1)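 Second-instar larvae on diet in 128-well trays, covered and held at 25° C, 14:10 light-dark, for five to seven days. Percent mortality scored per well and averaged over eight wells; activity reported as a rating category.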

Assay [2] has as its system Beet Armyworm (Spodoptera exigua) ("BAW"), second instar larvae. The assay is described as follows: Bioassay on beet armyworm (BAW), 128-well diet tray assay. The class given is in vivo. Conditions: for pest or weed control at 50 µg/cm2: Spodoptera exigua. An outline of the steps:
as §1

The mark [3] stands for this setting: read-out: CL (Biological Results, rating).
The mark [4] stands for this setting: read-out: BAW (Biological Results, rating).

Take `Cc1cc(-c2ncn(-c3ccc(C(F)(F)F)cn3)n2)ccc1NC(=O)/N=C1\SCC(=O)N1c1cc(N(C)C)ccc1C(C)C` [Compound J285, (Z)-1-(3-(5-(Dimethylamino)-2-isopropylphenyl)-4-oxothiazolidin-2-ylidene)-3-(2-methyl-4-(1-(5-(trifluoromethyl)pyridin-2-yl)-1H-1,2,4-triazol-3-yl)phenyl)urea]: the pest or weed control at 50 µg/cm2 in assay [1] (setting [3]) and in assay [2] (setting [4]) was 50 to 100% each time.

As for `Cc1ccc(COCC(F)(F)F)c(N2C(=O)CS/C2=N\C(=O)Nc2ccc(-c3ncn(-c4ccc(C(F)(F)F)cn4)n3)cc2C)c1` [Compound J297, (Z)-1-(3-(5-Methyl-2-((2,2,2-trifluoroethoxy)methyl)phenyl)-4-oxothiazolidin-2-ylidene)-3-(2-methyl-4-(1-(5-(trifluoromethyl)pyridin-2-yl)-1H-1,2,4-triazol-3-yl)phenyl)urea], the pest or weed control at 50 µg/cm2 in assay [1] (setting [3]) and in assay [2] (setting [4]) was 50 to 100% each time.

Take `Cc1ccc(COCC(Cl)(Cl)Cl)c(N2C(=O)CS/C2=N\C(=O)Nc2ccc(-c3ncn(-c4ccc(OC(F)(F)F)cc4)n3)cc2C)c1` [Compound J459]: the CL rating entry in assay [1] (Table ABC, species CL, C = not tested, D = no activity noticed) is “A (50-100)”. The BAW rating result in assay [2] (Table ABC, species BAW, C = not tested, D = no activity noticed) is given as “A (50-100)”.

On to `Cc1ccc(COCC(F)(F)F)c(N2C(=O)CS/C2=N\C(=O)Nc2ccc(-c3noc(-c4ccc(OC(F)(F)F)cc4)n3)cc2F)c1` [Compound J770, (Z)-1-(2-Fluoro-4-(5-(4-(trifluoromethoxy)phenyl)-1,2,4-oxadiazol-3-yl)phenyl)-3-(3-(5-methyl-2-((2,2,2-trifluoroethoxy)methyl)phenyl)-4-oxothiazolidin-2-ylidene)urea], for which the pest or weed control at 50 µg/cm2 in assay [1] (read-out: CL rating) and in assay [2] (read-out: BAW rating) was 50 to 100% in each case.

For `COc1ccc(C(C)C)c(N2C(=O)CS/C2=N\C(=O)Nc2ccc(-c3ncn(-c4ccc(OC(F)(F)C(F)(F)F)cc4)n3)cc2F)c1` [Compound J27, (Z)-1-(2-Fluoro-4-(1-(4-(perfluoroethoxy)phenyl)-1H-1,2,4-triazol-3-yl)phenyl)-3-(3-(2-isopropyl-5-methoxyphenyl)-4-oxothiazolidin-2-ylidene)urea], the pest or weed control at 50 µg/cm2 in assay [1] (setting [3]) and in assay [2] (setting [4]) was 50 to 100% throughout.

Turning to `CCCc1ccc(N(C)C)cc1N1C(=O)CS/C1=N\C(=O)Nc1ccc(-c2ncn(-c3ccc(C(F)(F)F)cn3)n2)cc1F` [Compound J282, (Z)-1-(3-(5-(Dimethylamino)-2-propylphenyl)-4-oxothiazolidin-2-ylidene)-3-(2-fluoro-4-(1-(5-(trifluoromethyl)pyridin-2-yl)-1H-1,2,4-triazol-3-yl)phenyl)urea], the pest or weed control at 50 µg/cm2 in assay [1] (setting [3]) and in assay [2] (setting [4]) was 50 to 100% throughout.

Regarding `COc1ccc(C(C)C)c(N2C(=O)CS/C2=N\C(=O)Nc2ccc(-c3ncn(-c4ccc(OC(F)(F)C(F)(F)F)cc4)n3)cc2OC)c1` [Compound J29, (Z)-1-(3-(2-Isopropyl-5-methoxyphenyl)-4-oxothiazolidin-2-ylidene)-3-(2-methoxy-4-(1-(4-(perfluoroethoxy)phenyl)-1H-1,2,4-triazol-3-yl)phenyl)urea], the pest or weed control at 50 µg/cm2 in assay [1] (setting [3]) and in assay [2] (setting [4]) was 50 to 100% in each case.

Consider `COc1ccc(C(C)C)c(N2C(=O)CS/C2=N\C(=O)Nc2ccc(-c3ncn(-c4ccc(C(F)(F)F)cc4)n3)cc2F)c1` [Compound J11, (Z)-1-(2-Fluoro-4-(1-(4-(trifluoromethyl)phenyl)-1H-1,2,4-triazol-3-yl)phenyl)-3-(3-(2-isopropyl-5-methoxyphenyl)-4-oxothiazolidin-2-ylidene)urea], for which the pest or weed control at 50 µg/cm2 in assay [1] (setting [3]) and in assay [2] (setting [4]) was 50 to 100% throughout.

As to `CCOC(C)c1ccc(C)cc1N1C(=O)CS/C1=N\C(=O)Nc1ccc(-c2ncn(-c3ccc(C(F)F)cn3)n2)cc1F` (stereo not drawn) [Compound J354], the “CL (Biological Results, rating)” value in assay [1] (Cabbage Looper (Trichoplusia ni), C = Not Tested) was “A (50-100)”. Besides, the “BAW (Biological Results, rating)” value in assay [2] (Beet Armyworm (Spodoptera exigua), C = Not Tested) is reported as “A (50-100)”.
